Some test systems named below: A549 NSCLC; CCRF-CEM leukemia; COLO 205 colon; HOP-62 NSCLC; HT29 colon; K-562 leukemia; MCF7 breast; NCI-H522 lung; SNB-19 CNS; TK-10 renal; NCI-H226 lung; SK-MEL-28 melanoma; HL-60(TB) leukemia; HS 578T breast; T-47D breast.
What all share (test): NCI-60 cell line screen, 48 h

Each structure is given as a SMILES string.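 Cells were grown in 96-well plates and exposed to each compound for 48 hours at five concentrations; endpoints were interpolated linearly between bracketing concentrations, or set to the highest concentration if not reached. The concentration for full growth arrest is given as TGI.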

Consider `Cc1nc(CC#N)n[nH]1`, for which the TGI in the experiment with A549 NSCLC, in the experiment with CCRF-CEM leukemia, with COLO 205 colon, with HOP-62 NSCLC, in the experiment with HT29 colon and in the experiment with K-562 leukemia was > 100 µM each time. Moreover, the TGI in the experiment with MCF7 breast, with NCI-H522 lung, in the experiment on SNB-19 CNS and in the experiment on TK-10 renal was > 100 µM each time.

On to `CCOc1ccc2[nH]c3c(C)c4ccncc4c(C)c3c2c1`, for which the TGI in the experiment on A549 NSCLC was 2.88 µM; with CCRF-CEM leukemia, > 100 µM; in the experiment on COLO 205 colon, 3.04 µM; in the experiment with HOP-62 NSCLC it was 2.3 µM; with HT29 colon, 2.18 µM; in the experiment with K-562 leukemia, > 100 µM. For the same compound, the TGI with NCI-H226 lung stood at 4.24 µM; with NCI-H522 lung, 2.77 µM; in the experiment with SK-MEL-28 melanoma, 3.61 µM; with SNB-19 CNS it was 2.77 µM; in the experiment with TK-10 renal, 3.59 µM.

On to `COc1ccc(C(=O)O[C@H]2[C@@H]3C=CO[C@@H](OC4OC(CO)C(O)C(O)C4O)[C@@H]3[C@@]3(CO)O[C@@H]23)cc1O` (stereo partly drawn), for which the TGI in the experiment with A549 NSCLC, in the experiment with CCRF-CEM leukemia, in the experiment on COLO 205 colon, in the experiment on HL-60(TB) leukemia, with HOP-62 NSCLC and with HT29 colon was > 100 µM in each case. The TGI in the experiment on K-562 leukemia, with NCI-H522 lung, with SK-MEL-28 melanoma, in the experiment on SNB-19 CNS and in the experiment with TK-10 renal was > 100 µM each time.

Take `NC(=S)/N=C(/c1nc2ccc(Cl)cc2[nH]c1=O)C(O)c1ccccc1Cl` (stereo not drawn): the TGI in the experiment with A549 NSCLC, in the experiment on CCRF-CEM leukemia, with COLO 205 colon, in the experiment with HL-60(TB) leukemia, with HOP-62 NSCLC and with HT29 colon was > 100 µM in each case. In addition, the TGI in the experiment with K-562 leukemia, in the experiment on NCI-H226 lung, in the experiment with NCI-H522 lung, in the experiment with SK-MEL-28 melanoma and in the experiment on TK-10 renal was > 100 µM each time.

In the case of `Cc1c2ccncc2cc2c1[nH]c1ccccc12`, the TGI stood at 15.1 µM in the experiment on A549 NSCLC; 15 µM in the experiment with CCRF-CEM leukemia; 7.72 µM in the experiment with COLO 205 colon; 6.36 µM in the experiment on HL-60(TB) leukemia; 21.8 µM in the experiment on HOP-62 NSCLC; 31.5 µM in the experiment on HT29 colon. Also, the TGI was 6.01 µM in the experiment with K-562 leukemia; 23.5 µM with MCF7 breast; 16.2 µM in the experiment with NCI-H226 lung; 18.9 µM with NCI-H522 lung; 5.91 µM in the experiment with SK-MEL-28 melanoma; 34.7 µM in the experiment with SNB-19 CNS.

Regarding `CN(C)c1ccc(C=NCC2CCCN3CCCCC23)cc1` (stereo not drawn), the TGI in the experiment with A549 NSCLC, in the experiment with COLO 205 colon, with HOP-62 NSCLC, in the experiment on HS 578T breast, with MCF7 breast and with NCI-H226 lung was > 100 µM each time. Further, the TGI in the experiment with NCI-H522 lung, with SNB-19 CNS and in the experiment on TK-10 renal was > 100 µM each time.

As for `c1ccc(C(NCC2CCO2)(c2ccccc2)c2ccccc2)cc1` (stereo not drawn), the TGI was 30.6 µM in the experiment on A549 NSCLC; > 100 µM in the experiment on CCRF-CEM leukemia; > 100 µM with COLO 205 colon; 48.8 µM in the experiment on HL-60(TB) leukemia; > 100 µM in the experiment with K-562 leukemia; 31.7 µM with MCF7 breast. In addition, the TGI was 26.6 µM in the experiment on NCI-H226 lung; 28.1 µM in the experiment on NCI-H522 lung; > 100 µM in the experiment on SK-MEL-28 melanoma; 27.6 µM in the experiment on SNB-19 CNS; 28.4 µM with TK-10 renal.

As to `COC(CN(C(C)=O)C1CCC2(SCCS2)c2[nH]c3ccccc3c21)OC` (stereo not drawn), the TGI with A549 NSCLC, in the experiment with CCRF-CEM leukemia, in the experiment with COLO 205 colon, in the experiment on HL-60(TB) leukemia, with HOP-62 NSCLC and in the experiment on HS 578T breast was > 100 µM throughout. Also, the TGI in the experiment with HT29 colon, with K-562 leukemia, with MCF7 breast, in the experiment with NCI-H226 lung, in the experiment on NCI-H522 lung and with SK-MEL-28 melanoma was > 100 µM throughout. The TGI in the experiment on SNB-19 CNS and with TK-10 renal was > 100 µM each time.

Consider `NC1=C(NC(=O)Cc2ccccc2F)C(=O)c2ccccc2C1=O`, for which the TGI in the experiment with A549 NSCLC was > 100 µM; with CCRF-CEM leukemia it was > 100 µM; in the experiment on COLO 205 colon it was > 100 µM; with HL-60(TB) leukemia, > 100 µM; in the experiment with HOP-62 NSCLC, 51 µM; in the experiment on HT29 colon, > 100 µM. The TGI with K-562 leukemia is > 100 µM; in the experiment on NCI-H226 lung, > 100 µM; with NCI-H522 lung it was > 100 µM; with SK-MEL-28 melanoma it was > 100 µM; with SNB-19 CNS, > 100 µM; with TK-10 renal it was 69.7 µM.

`COC(=O)CCC1=C(CC(=O)OC)C(C)(OC)N=C1NC(=O)OCc1ccccc1` (stereo not drawn): the TGI in the experiment on A549 NSCLC, in the experiment with CCRF-CEM leukemia, in the experiment on COLO 205 colon, in the experiment on HOP-62 NSCLC, in the experiment with HT29 colon and with K-562 leukemia was > 100 µM throughout. Also, the TGI in the experiment with MCF7 breast, with NCI-H226 lung, with NCI-H522 lung, in the experiment with SK-MEL-28 melanoma, in the experiment with SNB-19 CNS and with T-47D breast was > 100 µM in each case. Besides, in the experiment on TK-10 renal, the TGI was > 100 µM.

On to `CC(=O)OC12C3C4C1C1C2C3C41OC(C)=O` (stereo not drawn), for which the TGI with A549 NSCLC, with CCRF-CEM leukemia, in the experiment on COLO 205 colon, in the experiment with HL-60(TB) leukemia, with HOP-62 NSCLC and in the experiment with HT29 colon was > 100 µM each time. In addition, the TGI with K-562 leukemia, in the experiment on MCF7 breast, in the experiment on NCI-H226 lung, in the experiment on NCI-H522 lung, in the experiment on SK-MEL-28 melanoma and with T-47D breast was > 100 µM each time. Besides, in the experiment with TK-10 renal, the TGI was > 100 µM.

Consider `CCC1(N=[N+]=[N-])C(=O)c2ccccc2N(C)C1=O` (stereo not drawn), for which the TGI with A549 NSCLC, with CCRF-CEM leukemia, in the experiment on COLO 205 colon, with HL-60(TB) leukemia, with HOP-62 NSCLC and in the experiment with HT29 colon was > 100 µM in each case. Further, the TGI with K-562 leukemia, in the experiment on NCI-H522 lung, with SK-MEL-28 melanoma, in the experiment with SNB-19 CNS and in the experiment with TK-10 renal was > 100 µM each time.

The values above are taken from PubChem BioAssay (NCI).
